What was measured:
[1] = test system: primary HNECs; experiment: MicroRNA microarray analysis and miR qPCR after P1 stimulation; assay type: cell-based, human
Procedure: Confluent HNECs in 12-well plate were stimulated with medium or P1 (clade B, 125 μM) for 6 hours, at 37° C. Total RNA was extracted using Trizol. Before analysis, lfTSLP RNA up-regulation was confirmed by qPCR as described above and RNA quality was assessed with Agilent 2100 bioanalyzer according to manufacturer instructions (Agilent Technologies). Three untreated and treated paired samples from three independent experiments were analyzed by GeneChip miRNA 4.0 arrays (Affymetrix, Thermo Fisher) containing probes for 2578 human mature microRNAs and 2025 pre-mature microRNAs (https://assets.thermofisher.com/TFS-Assets/LSG/brochures/miRNA_4-0_and_4-1_datasheet.pdf). Potential microRNA targets were analyzed with the Ingenuity Pathway Analysis (IPA) software (Qiagen).
The quantification and knockdown of microRNA were performed as previously described with some modifications (Zhou, Xu et al. 2018). Briefly, total RNA was purified using MinElute PCR Purification Kit (Qiagen), the expression level of miR-4485 was quantified with TaqMan Small RNA Assays (Thermo Fisher). Reactions were performed in triplicates, and U6 was used as endogenous control. In order to knockdown miR-4485, 70% confluent HNEC cells were transfected with anti-miR-4485 inhibitor (67 nM, Qiagen) or mock inhibitor (miSCRIPT inhibitor negative control, 67 nM, Qiagen) using Lipofectamine RNAiMAX (Invitrogen) as described by the manufacturer. 36 h after transfection, miR-4485 expression, when quantified as described above, was reduced by 50-60% in anti-miR-4485 transfected cells as compared to anti-miR control (n=3 independent experiments).

[2] = test system: nasal RPMI cells; experiment: Quantitative RT-PCR for short and long form TSLP, nasal RPMI cells; assay type: cell-based, human
Procedure: The expression of short and long form TSLP was quantified as described (Bjerkan, Schreurs et al. 2015, Dong, Hu et al. 2016). Briefly, total RNA was extracted using Trizol. Five hundred nanograms of RNA were treated with ezDNase Enzyme (Thermo Fisher) to remove genomic DNA, and reverse transcribed into cDNA using the kit SuperScript IV VILO Master Mix according to manufacturer instructions (Thermo Fisher). Quantitative PCR was performed using reported primers (Dong, Hu et al. 2016) and the PowerUp SYBR Green Master Mix according to manufacturer instructions (Thermo Fisher). Reactions were performed in triplicates, with glyceraldehyde-3-phosphate dehydrogenase (GAPDH) as the internal control. Amplification, data acquisition, and analysis were carried out using the LightCycler 480 Software (Roche, Mannheim, Germany). The levels of TSLP mRNA were normalized to the levels of GAPDH using the ΔCt method (Schmittgen and Livak 2008) and were presented as 2-ΔCt values.

[3] = test system: CD8-depleted PBMCs cocultured with RPMI 2650 cells; experiment: In vitro immunization assay with ovalbumin; assay type: cell-based, human
Procedure: In vitro immunization assay was performed as reported (Jung, Matsumoto et al. 2007) with modifications. Briefly, 1×10^6 CD8-depleted PBMCs (Human CD8 Depletion Cocktail, StemCell Technologies, France) were cocultured for 24 hrs with RPMI 2650 cells ([…]) pre-seeded in 48 well plates for 48 hrs. Then, ovalbumin (OVA, EndoFit Ovalbumin, 10 µg/mL, Invivogen) alone, OVA together with P1 (5 μM, 25 μM, 125 μM), OVA together with P1 mutant (P1mut, 125 μM), or medium were added to in RPMI 1640 medium supplemented with Non-Essential Amino Acids (NEAA solution, Thermo Fisher), IL-4 ([…]), IL-2 (10 UI/mL) and 2-mercaptoethanol (20 μM) for 7 days.
For the detection of OVA-specific B cells, at indicated time of culture, PMBCs were surface stained with ovalbumin conjugated to fluorescein (OVA-FITC, 20 ug/mL, Thermo), PE-conjugated mouse anti-human CD20 (BD Biosciences, CA, USA), APC-conjugated goat anti-human IgA or donkey anti-human IgG (Jackson ImmunoResearch, PA, USA) as indicated by the manufacturer. Specific labeling was quantified by flow cytometry with a Guava EasyCyte flow cytometer (Merck-Millipore), and analyzed with the dedicated InCyte software, using the following strategy: CD20+ B cells were first gated and cell double positive for OVA-FITC+ and APC-conjugated anti-IgA or anti-IgG were determined as OVA-IgA or IgG-specific B-cell s.
In vitro immunization assays have been used to produce specific monoclonal antibodies using a defined antigen complemented with an adjuvant (Borrebaeck, Danielsson et al. 1987). Here, we establish a mucosal immunization model adapted from (Jung, Matsumoto et al. 2007, Yeh, Yeh et al. 2013, Wijkhuisen, Savatier et al. 2016) and using mucosal DCs based on our results presented above. OVA was selected as the model antigen. Therefore, human CD8-depleted PBMCs (n=5 independent donors) were cocultured with RPMI 2650 cells for one day to educate DCs, and prior to addition of either medium, OVA, OVA plus P1 mutant (P1mut, 125 μM) or OVA plus P1 (5 μM, 25 μM, 125 μM) for seven more days. OVA-specific B cells were quantified by flow cytometry using FITC-conjugated OVA and anti-CD2O-PE to gate on OVA-specific B cells. The Ig isotype of surface B cell receptor (BCR) was next characterized by APC-conjugated anti-human-IgA or anti-human-IgG. […] Similar results were obtained when B cells were stained with anti-CD19-PE.

[4] = test system: primary human nasal epithelial cells (HNECs); experiment: TSLP secretion in primary human nasal epithelial cells; assay type: cell-based; settings: GalCer-dependent
Procedure: Primary human nasal epithelial cells (HNECs, purchased from PromoCell, Heidelberg, Germany) were isolated from nasal septum or adenoids of healthy donors. Cells from two independent donors were obtained. HNECs were cultured in airway epithelial cell basal medium (PromoCell) and supplemented with airway epithelial cell growth SupplementMix (PromoCell) and only cells from passage 2 to 6 were used.
TSLP, IL-25/IL-17E, IL-33, IFN-γ, IL-10, IL-12/23p40, IL-4, IL-5, IL-6, IL-13, TNF-α, MMP-9, IL-8/CXCL8, […], MDC/CCL22, TARC/CCL17, APRIL and BAFF were measured in culture supernatants from indicated experiments with custom multiplex Luminex assays (Bio-techne) according to the manufacturer's instructions. Additionally, when indicated TSLP was measured in culture supernatants by enzyme-linked immunosorbent assay (ELISA) with a limit of detection of 8 pg/ml (Thermo Fisher) according to the manufacturer's instructions.

## SQNQQEKNEQELLELDKWASLWNWFNITNWLWYIK [P1]
[1]; P1 125 μM, 6 hours
  miR-4485-3p increase, microRNA array: > 9 fold
[1]; P1 125 μM, 6 hours, microRNA array, p<0.05, 23 up-regulated, 16 down-regulated
  number of differentially expressed microRNAs: 39
[1]; primary HNECs, P1 stimulation
  miR-375 expression: not accompanied by a change in miR-375 expression
[1]; upon P1 stimulation, n=4
  increase in miR-4485-3p expression, qPCR: 2.6±0.8 fold
[2]; p=0.02, n=5
  increase of lfTSLP transcription compared to unstimulated cells: 1.9 fold
[2]; upon P1 stimulation
  level of the sfTSLP transcript: remains unchanged
[3]; OVA plus P1 at 5 μM and 25 μM, 7 days
  induction of OVA-specific B cells: very limited
[3]; OVA plus P1 at 125 μM, 7 days, n=5 donors
  OVA-specific B cells (surface OVA-specific IgA and IgG): significantly enhances OVA recognition by B cells
[3]; absence of nasal epithelial cells during the in vitro immunization
  induction of OVA-specific B cells: not able to induce OVA-specific B cells
[3]; day 7, ELISA
  OVA-specific antibody secretion in culture supernatants: could not be detected by ELISA
[4]
  TSLP secretion: induces primary human nasal epithelial cells (HNECs) to secrete TSLP

Reference: US20240016924A1, “NEW ADJUVANT TO IMPROVE THE INNATE IMMUNITY” (INSTITUT NATIONAL DE LA SANTÉ ET DE LA RECHERCHE MÉDICALE, priority 2020, published 2024)
